Measurements published in PubChem BioAssay (NCI).
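Briefly, cells in 96-well plates were exposed to five compound concentrations for 48 h, and endpoints were estimated by linear interpolation. GI50 = concentration required for 50% inhibition of growth. TGI marks complete inhibition of growth.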

Columns and labels:
Experiment in all cases: growth of human tumour cells (NCI), 48 h
ACHN renal = tested on: ACHN renal
CCRF-CEM leukemia = tested on: CCRF-CEM leukemia
IGROV1 ovarian = tested on: IGROV1 ovarian
NCI-H460 lung = tested on: NCI-H460 lung
SF-295 CNS = tested on: SF-295 CNS
SK-MEL-2 melanoma = tested on: SK-MEL-2 melanoma
SNB-19 CNS = tested on: SNB-19 CNS
UACC-257 melanoma = tested on: UACC-257 melanoma
UACC-62 melanoma = tested on: UACC-62 melanoma
HOP-62 NSCLC = tested on: HOP-62 NSCLC

Row | SMILES | GI50 (ACHN renal) | TGI (ACHN renal) | GI50 (CCRF-CEM leukemia) | TGI (CCRF-CEM leukemia) | GI50 (IGROV1 ovarian) | TGI (IGROV1 ovarian) | GI50 (NCI-H460 lung) | TGI (NCI-H460 lung) | GI50 (SF-295 CNS) | TGI (SF-295 CNS) | GI50 (SK-MEL-2 melanoma) | TGI (SK-MEL-2 melanoma) | GI50 (SNB-19 CNS) | TGI (SNB-19 CNS) | GI50 (UACC-257 melanoma) | TGI (UACC-257 melanoma) | GI50 (UACC-62 melanoma) | TGI (UACC-62 melanoma) | TGI (HOP-62 NSCLC) | GI50 (HOP-62 NSCLC)
1 | CC(C)=C[C@@H]1C[C@H](C)[C@H]2CC[C@H](C)C3=C2[C@](O)(OC3=O)[C@]1(C)O | > 100 µM | > 100 µM | > 100 µM | > 100 µM | > 100 µM | > 100 µM | > 100 µM | > 100 µM | > 100 µM | > 100 µM | > 100 µM | > 100 µM | > 100 µM | > 100 µM | > 100 µM | > 100 µM | 99.8 µM | > 100 µM |  | 
2 | O=c1c2ccccc2[se]n1-c1cccnc1 |  | 88.1 µM |  |  |  | 46.7 µM |  | > 100 µM |  | > 100 µM |  | 47.9 µM |  | > 100 µM |  | 57.7 µM |  | 37.1 µM | 71 µM | 
3 | CC(C)(C)[SiH]12(OC(C(F)(F)F)(C(F)(F)F)c3ccccc31)OC(C(F)(F)F)(C(F)(F)F)c1ccccc12 |  | 21.7 µM |  |  |  |  |  | 6.68 µM |  | 8.41 µM |  | 31.1 µM |  | 13.1 µM |  | 27.7 µM |  |  |  | 
4 | Ic1ccc(Nc2nc3nonc3nc2Nc2ccc(I)cc2)cc1 | 0.269 µM | > 100 µM | 0.145 µM | > 100 µM | 0.46 µM | > 100 µM | 0.156 µM | > 32 µM | 0.215 µM | 0.893 µM | 0.143 µM | 0.692 µM | 0.324 µM | > 100 µM | 0.2 µM | 0.772 µM |  |  | 0.961 µM | 0.302 µM
5 | Cc1ccc(SC(C)/C=C/NNC2=NC(c3ccccc3)C(c3ccccc3)=NN2)cc1 (configuration not stated) |  | > 100 µM |  | > 100 µM |  | > 100 µM |  | > 100 µM |  | > 100 µM |  | > 100 µM |  |  |  | > 100 µM |  | 48.7 µM |  | 
6 | CC1=CC(/C=C(\C)CCCc2ccoc2)C2(OC(=O)C(C)=C2O)[C@H]2C1CC[C@@H]2C (some centres not stated) |  | 76.4 µM |  | 58.6 µM |  | > 100 µM |  |  |  | 56.2 µM |  |  |  | 42.6 µM |  | > 100 µM |  | 37.5 µM |  | 
7 | O=Cc1cc2c(cc1-c1c(C=O)ccc3c1OCO3)OCO2 |  | > 10 µM |  | > 10 µM |  | > 10 µM |  |  |  | > 10 µM |  |  |  | > 10 µM |  | > 10 µM |  | > 10 µM | > 10 µM | 
8 | C=CC1CC12C(=O)C1OC2(C)C2C(=O)c3cc4ccccc4cc3C(=O)C12 (configuration not stated) | 16.9 µM | 42.1 µM |  |  | 39 µM | > 100 µM | 26.9 µM | > 100 µM |  |  | 45.8 µM | > 100 µM | 56.7 µM | > 100 µM | 21.5 µM | 65.5 µM |  |  | > 100 µM | 75.9 µM
9 | C[C@H]1c2cccc(O)c2C(O)=C2C(=O)[C@]3(O)C(O)=C(C(N)=O)C(=O)[C@@H](N(C)C)[C@@H]3[C@@H](O)[C@@H]21 | 3.53 µM | 23.9 µM |  |  | 2.86 µM | 9.26 µM | 2.96 µM | 10.2 µM | 2 µM | 5.69 µM | 3.13 µM | 8.99 µM | 3.02 µM | 14.5 µM | 3.19 µM | 13.9 µM | 2.53 µM | 9.68 µM | 10.8 µM | 2.76 µM
10 | CCC[CH2][Sn]([CH2]CCC)([CH2]CCC)[O]C(=O)CC | 0.17 µM | 0.333 µM |  |  | 0.167 µM | 0.397 µM | 0.135 µM | 0.281 µM | 0.238 µM | 0.746 µM | 0.186 µM | 0.37 µM | 0.169 µM | 0.335 µM | 0.145 µM | 0.296 µM | 0.178 µM | 0.405 µM | 0.414 µM | 0.188 µM
11 | CC(O)C(N=Cc1ccccc1[O-])C(=O)[O-].CC(O)C(N=Cc1ccccc1[O-])C(=O)[O-].[Co+2] (configuration not stated) | > 100 µM | > 100 µM | 20.1 µM | > 100 µM | > 100 µM | > 100 µM |  |  | > 100 µM | > 100 µM | > 100 µM | > 100 µM | > 100 µM | > 100 µM | > 100 µM | > 100 µM | 65.8 µM | > 100 µM |  | 
12 | O=[n+]1c2c(n([O-])c3ccccc31)CCCCCCCCCC2 |  | > 100 µM |  | > 100 µM |  | > 100 µM |  |  |  | > 100 µM |  | > 100 µM |  | > 100 µM |  | > 100 µM |  | > 100 µM |  | 
13 | CCCCCCCCCC/C=C/CC(=O)SCCNC(=O)CCNC(=O)[C@@H](O)C(C)(C)COP(=O)(O)OP(=O)(O)OCC1OC(n2cnc3c(N)ncnc32)C(O)C1OP(=O)(O)O (some centres not stated) |  | > 10 µM |  | > 10 µM |  | > 10 µM |  | > 10 µM |  | > 10 µM |  |  |  | > 10 µM |  | > 10 µM |  | > 10 µM | > 10 µM | 
14 | O=C1c2ccccc2C2(Br)C(=O)c3ccccc3C12 (configuration not stated) |  | > 100 µM |  | > 100 µM |  | > 100 µM |  | > 100 µM |  | > 100 µM |  | > 100 µM |  |  |  | > 100 µM |  | > 100 µM | > 100 µM | 
15 | O=C(CCCn1ccnc1[N+](=O)[O-])NCCn1cncc1[N+](=O)[O-] |  | > 100 µM |  | > 100 µM |  | > 100 µM |  | > 100 µM |  | > 100 µM |  | > 100 µM |  |  |  | > 100 µM |  | > 100 µM | > 100 µM | 
16 | O=C1CN=C(C[N+](=O)[O-])c2ccccc21 |  | > 100 µM |  |  |  | > 100 µM |  | > 100 µM |  | > 100 µM |  | > 100 µM |  | > 100 µM |  | > 100 µM |  |  | > 100 µM | 
17 | COc1ncnc(C2CC2)c1-c1ncc2cnn(Cc3ccc(-c4nc(C(F)(F)F)cn4C(C)C)cc3)c2n1 | 17.6 µM | 49.2 µM | 34 µM | > 100 µM | 21.1 µM | > 100 µM | 18.4 µM | 85.4 µM | 18.4 µM | 65.1 µM | 14.5 µM | 30.4 µM | 22 µM | 69.5 µM | 18.4 µM | 58.8 µM |  |  | > 100 µM | 25.6 µM
18 | OCCN1CN(CCO)CN(c2nc(N3CN(CCO)CN(CCO)C3)nc(N3CN(CCO)CN(CCO)C3)n2)C1 |  | 1.64 ng/mL |  |  | 1.55 ng/mL | 4.61 ng/mL | 0.92 ng/mL | 3.85 ng/mL |  |  |  |  | 1.08 ng/mL | 63 ng/mL | 1.42 ng/mL | 3.14 ng/mL | 0.991 ng/mL | 3.31 ng/mL |  | 
